Experimental findings from patent publication US20180185305A1, “An Amino Thiol for Use in the Treatment of an Infection Caused by the Bacterium Mycobacterium Spp” (NOVABIOTICS LIMITED, priority 2015, published 2018) are described below.

What all share (type): cell-based
Assay [1] concerns Mycobacterium abscessus. Kind of assay: Antimicrobial susceptibility of M. abscessus isolates, CLSI broth microdilution (MIC100). The following applies: for MIC: Mycobacteroides abscessus. As to the method: (§1) Mycobacterium absessus complex (MAC) was isolated from three participating patients. The susceptibility of these isolates, plus the MAC type strain M. abscessus DSMZ44196 to the antimicrobial effects of cysteamine alone and cysteamine combined with antibiotics employed in MAC eradication strategies, (amikacin, azithromycin and meropenem) was assessed by CLSI broth microdilution procedure [CLSI, 2012] and checkerboard assay respectively.
(In general: Dilution methods test growth across graded concentrations, often in twofold steps.)

The subject of assay [2] is polymicrobial load in CF sputum. Kind of assay: Effect of cysteamine and antibiotics on CF sputum microbial burden: single exposure. The settings on record: overall over 4 and 24 h exposure; for reduction of polymicrobial load: cysteamine 1 mg/ml. As to the method: Sputum samples were processed for antimicrobial activity within 4 h of collection. To assess the antimicrobial impact of cysteamine alone and cysteamine in conjunction with antibiotics commonly used to treat infective exacerbations of CF lung disease, 0.2 ml of each sputum sample sputum was diluted ten fold in sterile phosphate buffered saline (PBS) and vortexed. Aliquots (0.2 ml) of the homogenised diluted sample were exposed to cysteamine only (1 mg/ml), [ ] antibiotic (tobramycin [0.1 mg/ml] or ciprofloxacin, [0.1 mg/ml] only, cysteamine plus antibiotic or vehicle (PBS) only, for 4 and 24 h at 37° C. Sputum samples were then serially diluted 10-fold (1×10^−1 to 1×10^−8) and spread-plated on non-selective nutrient agar plates. Cultures were incubated at 37° C. and cfu/ml of bacteria quantified at 48 h.
FEV1 was expressed as a percentage of predicted using GLI 2012 reference equations. Sputum microbial load expressed as colony forming units approximated to a log-normal distribution and was therefore logarithmically transformed to base 10. Microbial load after incubation with cysteamine, tobramycin, ciprofloxacin after 4 and 24 hours was modelled using two way repeated measures ANOVA with post hoc testing using Bonferroni adjustment. Analyses were performed using IBM SPSS Statistics for Windows, v22.0 (Armonk, N.Y.).

Assay [3] has as its system Mycobacterium abscessus. Kind of assay: Checkerboard assay of cysteamine combined with antibiotics, fractional inhibitory concentration index. As for the experimental part:
The Fractional Inhibitory Concentration (FIC) corresponds to an interaction coefficient indicating whether the combination of antimicrobial agents is synergistic, additive, antagonist or neutral. The FIC is determined by comparing the activity of an agent in combination (MIC of agent A+agent B) with the activity of the agent alone (MIC of agent A or agent B) as follow (Singh et al., 2000):
FIC=MICA[combition]/MICA[alone]+MICB[combination]/MICB[alone]
Additive combinations of two antimicrobial agents are indicated by a FIC index of 1, whereas a FIC index <1 indicates synergistic combinations. Neutral combinations would give a FIC between 1 and 4, a FIC index higher than 4 indicates antagonist effects between the two antimicrobial agents.
as §1

The mark [4] stands for this setting: DSM44196, strain DSM44196 (type).
Where [5] appears, read: 23 samples, tobramycin 0.1 mg/ml, mean (95% CI).
Setting [6] is: nine samples, ciprofloxacin 0.1 mg/ml.

SMILES strings stand for the structures.

As to `C[C@@H](O)[C@H]1C(=O)N2C(C(=O)O)=C(S[C@@H]3CN[C@H](C(=O)N(C)C)C3)[C@H](C)[C@H]12` [Meropenem], the MIC in the assay with Mycobacterium abscessus [1] (setting [4]) was 64 µg/mL; in the assay with Mycobacterium abscessus [1] (strain MR27419N (clinical)), 64 µg/mL; in the assay with Mycobacterium abscessus [1] (strain MR313292 (clinical)), 16 to 64 µg/mL; with Mycobacterium abscessus [1] (strain MR313367D (clinical)), 16 to 64 µg/mL.
On to `NC[C@H]1O[C@H](O[C@H]2[C@H](O)[C@@H](O[C@H]3O[C@H](CO)[C@@H](O)[C@H](N)[C@H]3O)[C@H](N)C[C@@H]2N)[C@H](N)C[C@@H]1O` [Tobramycin], for which the “reduction of polymicrobial load” value in assay [2] (setting [5]) is recorded as 1.42 (95% CI 0.92-1.92) log10 units.
Consider `CC[C@H]1OC(=O)[C@H](C)[C@@H](O[C@H]2C[C@@](C)(OC)[C@@H](O)[C@H](C)O2)[C@H](C)[C@@H](O[C@@H]2O[C@H](C)C[C@H](N(C)C)[C@H]2O)[C@](C)(O)C[C@@H](C)CN(C)[C@H](C)[C@@H](O)[C@]1(C)O` [Azithromycin], for which the minimal inhibitory concentration (MIC) is 1 to 2 µg/mL with Mycobacterium abscessus [1] (setting [4]), 1 µg/mL in the assay with Mycobacterium abscessus [1] (strain MR27419N (clinical)), 8 µg/mL in the assay on Mycobacterium abscessus [1] (strain MR313292 (clinical)) and 1 µg/mL in the assay with Mycobacterium abscessus [1] (strain MR313367D (clinical)).
Turning to `NCC[C@H](O)C(=O)N[C@@H]1C[C@H](N)[C@@H](O[C@H]2O[C@H](CN)[C@@H](O)[C@H](O)[C@H]2O)[C@H](O)[C@H]1O[C@H]1O[C@H](CO)[C@@H](O)[C@H](N)[C@H]1O` [Amikacin], the MIC with Mycobacterium abscessus [1] (setting [4]) was 4 to 8 µg/mL; in the assay on Mycobacterium abscessus [1] (strain MR27419N (clinical)), 16 µg/mL; with Mycobacterium abscessus [1] (strain MR313292 (clinical)), 4 µg/mL; in the assay with Mycobacterium abscessus [1] (strain MR313367D (clinical)), 16 µg/mL.
`NCCS` [Cysteamine, cysteamine]: in the assay with Mycobacterium abscessus [3] (clinical and type strains), the “effect of cysteamine on the impact of amikacin (by FICI)” value is “potentiated the impact of amikacin in both clinical and type strains”. For the same molecule, the “effect of cysteamine on the impact of azithromycin (by FICI)” value in the assay with Mycobacterium abscessus [3] (clinical and type strains) is given as “azithromycin in all but one clinical strain”. Besides, in the assay with Mycobacterium abscessus [3] (clinical isolates and type strain), the “effect of cysteamine on meropenem sensitivity” value is “showing some concentration-specific antagonism”. Also, the MIC range in the assay on Mycobacterium abscessus [1] (M. abscessus isolated from three study subjects) lay in the range of 62.5 to 250 µg/mL. The minimal inhibitory concentration (MIC) with Mycobacterium abscessus [1] (setting [4]) is 62.5 to 125 µg/mL; in the assay on Mycobacterium abscessus [1] (strain MR27419N (clinical)), 125 µg/mL; in the assay with Mycobacterium abscessus [1] (strain MR313292 (clinical)), 125 to 250 µg/mL; with Mycobacterium abscessus [1] (strain MR313367D (clinical)), 62.5 to 125 µg/mL. Also, the “reduction of polymicrobial load” value is 3.18 (2.30-4.07) log10 units in assay [2] (setting [5]) and 2.76 log10 units in assay [2] (setting [6]). The “further reduction of polymicrobial load compared with tobramycin” value in assay [2] (23 samples) was determined as 1.76 log10 units. Besides, the “further reduction of polymicrobial load compared with ciprofloxacin” value in assay [2] (nine samples) is given as 1.92 log10 units.
Take `O=C(O)c1cn(C2CC2)c2cc(N3CCNCC3)c(F)cc2c1=O` [Ciprofloxacin]: the “reduction of polymicrobial load” value in assay [2] (setting [6]) stood at 0.84 log10 units.

What is called MIC is the lowest concentration that inhibits growth of the organism.
